Laboratory results as given in PubChem BioAssay (NCI).
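Five concentrations, 48 hours, 96-well plates. TGI: concentration producing complete growth inhibition.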

Key:
Assay in all cases: NCI tumour cell line growth inhibition, 48 h
[1] = tested on: CCRF-CEM leukemia
[2] = tested on: KM12 colon
[3] = tested on: HS 578T breast
[4] = tested on: A549 NSCLC
[5] = tested on: NCI-H460 lung
[6] = tested on: MOLT-4 leukemia
[7] = tested on: OVCAR-8 ovarian
[8] = tested on: RXF 393 renal
[9] = tested on: HL-60(TB) leukemia
[10] = tested on: RPMI-8226 leukemia
[11] = tested on: NCI/ADR-RES ovarian
[12] = tested on: DU-145 prostate
[13] = tested on: SK-MEL-28 melanoma
[14] = tested on: SN12C renal
[15] = tested on: HT29 colon
[16] = tested on: SNB-75 CNS
[17] = tested on: UACC-62 melanoma
[18] = tested on: HOP-92 NSCLC
[19] = tested on: TK-10 renal
[20] = tested on: T-47D breast
[21] = tested on: SK-MEL-2 melanoma
[22] = tested on: SR leukemia
[23] = tested on: A498 renal
[24] = tested on: NCI-H226 lung
[25] = tested on: OVCAR-3 ovarian
[26] = tested on: IGROV1 ovarian
[27] = tested on: HCT-15 colon
[28] = tested on: NCI-H23 lung
[29] = tested on: NCI-H522 lung
[30] = tested on: CAKI-1 renal
[31] = tested on: K-562 leukemia
[32] = tested on: OVCAR-4 ovarian
[33] = tested on: OVCAR-5 ovarian
[34] = tested on: SK-OV-3 ovarian
[35] = tested on: HCT-116 colon
[36] = tested on: COLO 205 colon
[37] = tested on: MDA-N
[38] = tested on: SF-295 CNS
[39] = tested on: MCF7 breast
[40] = tested on: SW-620 colon
[41] = tested on: LOX IMVI melanoma
[42] = tested on: U251 CNS
[43] = tested on: BT-549 breast
[44] = tested on: M14 melanoma
[45] = tested on: HOP-62 NSCLC
[46] = tested on: UO-31 renal
[47] = tested on: UACC-257 melanoma
[48] = tested on: PC-3 prostate
[49] = tested on: SK-MEL-5 melanoma
[50] = tested on: SF-268 CNS
[51] = tested on: 786-0 renal
[52] = tested on: ACHN renal
[53] = tested on: HCC-2998 colon
[54] = tested on: MDA-MB-231 breast
[55] = tested on: SNB-19 CNS
[56] = tested on: MDA-MB-435
[57] = tested on: EKVX NSCLC
[58] = tested on: SF-539 CNS
[59] = tested on: MALME-3M melanoma

Question: Which results are given for `COc1cc(C)cc(C(=O)/C=C/c2ccccc2)c1O`?
Answer: TGI [1]: 84.1 µM; TGI [2]: 41.2 µM; TGI [3]: > 100 µM; TGI [4]: > 100 µM; TGI [5]: 44.7 µM; TGI [6]: 69.8 µM; TGI [7]: 40 µM; TGI [8]: 35.7 µM; TGI [9]: > 100 µM; TGI [10]: 63.3 µM; TGI [11]: 52 µM; TGI [12]: 29.4 µM; TGI [13]: 50.7 µM; TGI [14]: 34 µM; TGI [15]: 34.7 µM; TGI [16]: 72.1 µM; TGI [17]: 33.6 µM; TGI [18]: 31.2 µM; TGI [19]: 35.8 µM; TGI [20]: 44.6 µM; TGI [21]: 48.2 µM; TGI [22]: 77.6 µM; TGI [23]: 33.3 µM; TGI [24]: 73.9 µM; TGI [25]: 47.8 µM; TGI [26]: 30.5 µM; TGI [27]: 40.9 µM; TGI [28]: 32.4 µM; TGI [29]: 50.8 µM; TGI [30]: 39.1 µM; TGI [31]: > 100 µM; TGI [32]: 45.9 µM; TGI [33]: 34.9 µM; TGI [34]: 83.5 µM; TGI [35]: 34.9 µM; TGI [36]: 38.1 µM; TGI [37]: 55.2 µM; TGI [38]: 39.4 µM; TGI [39]: 49 µM; TGI [40]: 52.3 µM; TGI [41]: 34.8 µM; TGI [42]: 35.6 µM; TGI [43]: 37.8 µM; TGI [44]: 34.8 µM; TGI [45]: 40.3 µM; TGI [46]: 32.4 µM; TGI [47]: 37.7 µM; TGI [48]: 49.8 µM; TGI [49]: 40.4 µM; TGI [50]: 88.1 µM; TGI [51]: 37.3 µM; TGI [52]: 33.1 µM; TGI [53]: 38 µM; TGI [54]: 47.9 µM; TGI [55]: 38.5 µM; TGI [56]: 83.6 µM; TGI [57]: 47.8 µM

Question: What does the source list for `COc1ccc(-n2c(N)c(C#N)c(C#N)c2-c2ccco2)cc1`?
Answer: TGI [1]: > 100 µM; TGI [2]: > 100 µM; TGI [3]: > 100 µM; TGI [4]: > 100 µM; TGI [6]: > 100 µM; TGI [7]: > 100 µM; TGI [8]: > 100 µM; TGI [9]: > 100 µM; TGI [10]: > 100 µM; TGI [11]: > 100 µM; TGI [12]: > 100 µM; TGI [14]: > 100 µM; TGI [15]: > 100 µM; TGI [16]: > 100 µM; TGI [17]: > 100 µM; TGI [18]: > 100 µM; TGI [19]: > 100 µM; TGI [20]: > 100 µM; TGI [21]: > 100 µM; TGI [22]: > 100 µM; TGI [23]: > 100 µM; TGI [24]: > 100 µM; TGI [25]: > 100 µM; TGI [26]: > 100 µM; TGI [27]: > 100 µM; TGI [28]: > 100 µM; TGI [29]: > 100 µM; TGI [30]: > 100 µM; TGI [58]: > 100 µM; TGI [31]: > 100 µM; TGI [32]: > 100 µM; TGI [33]: > 100 µM; TGI [34]: > 100 µM; TGI [35]: > 100 µM; TGI [36]: > 100 µM; TGI [59]: > 100 µM; TGI [37]: > 100 µM; TGI [38]: > 100 µM; TGI [39]: > 100 µM; TGI [40]: > 100 µM; TGI [41]: > 100 µM; TGI [42]: > 100 µM; TGI [43]: > 100 µM; TGI [44]: > 100 µM; TGI [45]: > 100 µM; TGI [46]: > 100 µM; TGI [47]: > 100 µM; TGI [48]: > 100 µM; TGI [49]: > 100 µM; TGI [50]: > 100 µM; TGI [51]: > 100 µM; TGI [52]: > 100 µM; TGI [53]: > 100 µM; TGI [54]: > 100 µM; TGI [55]: > 100 µM; TGI [56]: > 100 µM; TGI [57]: > 100 µM
